Data set [1] concerns BJ (noncancerous human fibroblasts from foreskin). In words: Cytotoxic MTS assay, BJ. It counts as cell-based. In short, it runs like this: (§1)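 Compounds in DMSO are dispensed at time zero onto cells at 25,000–35,000 cells/mL. After 72 h incubation, MTS is added for 1–4 h and optical density at 490 nm is read. IC50 marks 50% cell growth inhibition.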
For orientation: Tetrazolium dyes change colour on reduction, which living cells bring about.

Data set [2] relates to CEM-DNR bulk (daunorubicin-resistant subline of CCRF-CEM cells). The data set can be described thus: Cytotoxic MTS assay, CEM-DNR. Type of data set: cell-based, human. In short, it runs like this:
(§2)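 Read-out was MTS absorbance at 490 nm, converted to tumor cell survival and fitted for the concentration inhibiting growth by 50%. Cells had been incubated with compound for 72 h in DMEM/RPMI 1640 with 10% fetal calf serum.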

The subject of data set [3] is HCT116 (colorectal carcinoma). The data set can be described thus: Cytotoxic MTS assay, HCT116. Type of data set: cell-based, human. The gist of the method: as §2
For data set [4], the system named is MRC-5LD (noncancerous human lung fibroblasts doxorubicin-resistant). The data set can be described thus: Cytotoxic MTS assay, MRC-5LD. It counts as cell-based. In short, it runs like this:
as §1

In data set [5] the test system is U2OS (osteosarcoma). In words: Cytotoxic MTS assay, U2OS. Type of data set: cell-based, human. The gist of the method: as §2
Data set [6] has as its system CCRF-CEM lymphoblasts. The data set can be described thus: BrDU incorporation analysis (DNA synthesis). It counts as cell-based, human. Conditions: 24 h, 5 × IC50 (second value of cell). As to the method: The effect of compounds on cell cycle distribution was determined to gain insights into the mechanism of its antiproliferative activity. […] For example, as compared with control, the percentage of cells in G2/M phases was increased by treatment with 5 × IC50 μM of compounds for 24 h (Table 4). […] As shown in (Table 4), there was a marked increase in the sub-G1 from 2.91 in untreated cells. 5-Bromo-2-deoxyuridine (BrDU) is incorporated into newly synthesized DNA, and 5-bromouridine (BrU) pulse labeling is therefore commonly used as a proliferation marker. Low BrDU and BrU incorporation into the DNA or RNA, respectively, of treated cells with all compounds at 5 × IC50 reflected inhibition of DNA and RNA synthesis, indicating irreversible apoptotic changes. The percentage of […] cells incorporating 5-bromouridine is proportional to the transcriptional activity of CCRF-CEM cells. Cells were cultivated and processed as described in the previous method. Before harvesting, BrDU 10 µM was added to the cells for pulse-labeling for 30 min. Then, cells were washed by PBS and fixed with −20 °C cold 70% ethanol and stored in a freezer overnight. Before analysis, the samples were incubated on ice for 30 min, washed once with PBS, and re-suspended in 2 M HCl for 30 min at rt to denature their DNA. Following neutralization with a 0.1 M Na2B4O7 (borax) solution, the cells were washed with PBS containing 0.5% Tween-20 and 1% BSA. Next, staining with primary anti-BrDU antibody (Exbio) was performed for 30 min at rt in the dark. Cells were then washed with PBS and stained with secondary anti-mouse-FITC antibody (Sigma) at rt in the dark. After another wash with PBS and incubation with propidium iodide (0.1 mg × mL^−1) and RNase A (0.5 mg × mL^−1) for 1 h at rt in the dark, cells were analyzed by flow cytometry using a 488 nm single beam laser (FACSCalibur, Becton Dickinson, Franklin Lakes, NJ, USA).

The test system of data set [7] is CCRF-CEM lymphoblasts. The data set can be described thus: BrDU incorporation analysis (DNA synthesis). It counts as cell-based, human. The following applies: 24 h, 1 × IC50 (first value of cell).

These results are taken from publication PMC9607427, “Novel 7-Chloro-(4-thioalkylquinoline) Derivatives: Synthesis and Antiproliferative Activity through Inducing Apoptosis and DNA/RNA Damage” (Pharmaceuticals, 2022).

For the molecule `COc1ccc(OC)c(C(=O)OCCS(=O)(=O)c2cc[n+]([O-])c3cc(Cl)ccc23)c1` [Compound 65, 2-[(N-Oxide 7-chloroquinolin-4-yl)sulfonyl]ethyl-2,5-dimethoxybenzoate], the IC50 stood at 22.2 µM in data set [1]; 8.97 µM in data set [2]; 8.83 µM in data set [3]; 2.02 µM in data set [4]; 7.67 µM in data set [5]. Further, the “DNA Synthesis (% positive of cells)” value in data set [6] came to 19.73%; in data set [7] it was 36.82%.

Consider `COc1ccc(C(=O)OCCS(=O)(=O)c2cc[n+]([O-])c3cc(Cl)ccc23)cc1` [Compound 63, 2-[(N-Oxide 7-chloroquinolin-4-yl)sulfonyl]ethyl-4-methoxybenzoate], for which the IC50 in data set [1] worked out at 23.9 µM; in data set [2], 8.74 µM; in data set [3] it was 16.2 µM; in data set [4], 2.91 µM; in data set [5], 5.71 µM. The “DNA Synthesis (% positive of cells)” value amounted to 13.54% in data set [6] and 41.06% in data set [7].

With `Cc1ccc([N+](=O)[O-])c(C(=O)OCCS(=O)(=O)c2cc[n+]([O-])c3cc(Cl)ccc23)c1` [Compound 70, 2-[(N-Oxide 7-chloroquinolin-4-yl)sulfonyl]ethyl-5-methyl-2-nitrobenzoate], the IC50 in data set [1] turned out to be 25.7 µM; in data set [2], 17.4 µM; in data set [3], 11.5 µM; in data set [4], 6.47 µM; in data set [5], 9.92 µM. In addition, the entries for the “DNA Synthesis (% positive of cells)” value in data set [6] and in data set [7] were 4.88% and 35.58%, respectively.

With `COc1ccc(C(=O)OCCS(=O)(=O)c2cc[n+]([O-])c3cc(Cl)ccc23)cc1[N+](=O)[O-]` [Compound 69, 2-[(N-Oxide 7-chloroquinolin-4-yl)sulfonyl]ethyl-4-methoxy-3-nitrobenzoate], the IC50 turned out to be 27.2 µM in data set [1]; 19.1 µM in data set [2]; 13.1 µM in data set [3]; 2.74 µM in data set [4]; 10.3 µM in data set [5]. Further, the entries for the “DNA Synthesis (% positive of cells)” value in data set [6] and in data set [7] were 4.22% and 34.45%, respectively.

Turning to `COc1ccccc1C(=O)OCCS(=O)(=O)c1cc[n+]([O-])c2cc(Cl)ccc12` [Compound 68, 2-[(N-Oxide 7-chloroquinolin-4-yl)sulfonyl]ethyl-2-methoxybenzoate], the IC50 in data set [1] turned out to be 24.6 µM; in data set [2], 12.2 µM; in data set [3], 5.25 µM; in data set [4] it was 4.17 µM; in data set [5] it was 6.9 µM. In addition, the “DNA Synthesis (% positive of cells)” value in data set [6] amounted to 7.18%; in data set [7], 41.27%.

Take `COc1cc(OC)c(C(=O)OCCS(=O)(=O)c2cc[n+]([O-])c3cc(Cl)ccc23)cc1OC` [Compound 66, 2-[(N-Oxide 7-chloroquinolin-4-yl)sulfonyl]ethyl-2,4,5-trimethoxybenzoate]: the IC50 in data set [1] amounted to 21.2 µM; in data set [2] it was 8.03 µM; in data set [3], 9.22 µM; in data set [4], 2.3 µM; in data set [5], 8.25 µM. Further, the “DNA Synthesis (% positive of cells)” value in data set [6] is listed as 9.68%; in data set [7] it was 39.87%.

With `O=C(OCCS(=O)(=O)c1cc[n+]([O-])c2cc(Cl)ccc12)c1ccc(C(F)(F)F)cc1` [Compound 72, 2-[(N-Oxide 7-chloroquinolin-4-yl)sulfonyl]ethyl-4-(trifluoromethyl)benzoate], the 50% inhibitory concentration (IC50) in data set [1] is 28.7 µM; in data set [2], 25.2 µM; in data set [3], 17.3 µM; in data set [4], 13.9 µM; in data set [5], 18.4 µM. The “DNA Synthesis (% positive of cells)” value in data set [6] is on record as 4.35%; in data set [7], 27.07%.

As usually defined, the IC50 is the concentration that inhibits the measured activity by half. Read a low IC50 as higher potency.
